{
  "source": "patent US5603943A",
  "about": "“Nasally administrable compositions” (Dott Research Laboratory, priority 1994, dated 1997)",
  "key": {"[1]": {"experiment": "Salmon calcitonin blood concentration, nasal powder with aluminum hydroxide (Test Example 6)", "format": "in vivo, healthy male adults (human)", "details": "for Concentration of salmon calcitonin in the blood: nasal 200 MRC (IU)/25 mg, individual cases No. 14-16 in order", "description": "A nasally administrable composition in powdery form was prepared by formulating salmon calcitonin as a physiologically active peptide at the rate of 200 MRC (IU) per 25 mg with aluminum hydroxide as a carrier having a mean particle size ranging from 40 to 45 μm.\n(§1) The resulting composition was nasally administered once at a dose of 25 mg to three healthy male adults and the blood (2.5 ml) was collected from each of the tested adults prior to administration and then at 5, 10, 15, 20, 30, 45, 60, 90, 120 and 180 minutes after administration. The concentration of the salmon calcitonin in each of the collected blood samples was assayed with a standard RIA assay kit."}, "[2]": {"experiment": "Salmon calcitonin blood concentration, nasal powder with hydroxyapatite (Test Example 3)", "format": "in vivo, healthy male adults (human)", "details": "for Concentration of salmon calcitonin in the blood: nasal 200 MRC (IU)/25 mg, individual cases No. 4-7 in order", "description": "(§2) A nasally administrable composition in powdery form was prepared by formulating salmon calcitonin as a physiologically active peptide at the rate of 200 MRC (IU) per 25 mg with hydroxyapatite as a carrier having a mean particle size ranging from 40 to 45 μm.\nas §1, with “four” for “three”"}, "[3]": {"experiment": "Salmon calcitonin blood concentration, nasal powder with magnesium stearate (Test Example 4)", "format": "in vivo, healthy male adults (human)", "description": "A nasally administrable composition in powdery form was prepared by formulating salmon calcitonin as a physiologically active peptide at the rate of 200 MRC (IU) per 25 mg with magnesium stearate as a carrier having a mean particle size ranging from 40 to 45 μm.\nas §1, with “in each -of the collected” for “in each of the collected”"}, "[4]": {"experiment": "Nasal absorption, clinical effect and irritation (general statement)", "format": "in vivo"}, "[5]": {"experiment": "Salmon calcitonin blood concentration, nasal powder with calcium carbonate (Test Example 5)", "format": "in vivo, healthy male adults (human)", "description": "A nasally administrable composition in powdery form was prepared by formulating salmon calcitonin as a physiologically active peptide at the rate of 200 MRC (IU) per 25 mg with calcium carbonate as a carrier having a mean particle size ranging from 40 to 45 μm.\nas §1"}, "[6]": {"details": "relative, among calcitonins; cited from earlier work"}, "[7]": {"experiment": "Salmon calcitonin blood concentration, nasal powder with hydroxyapatite (Test Example 2)", "format": "in vivo, healthy male adults (human)", "details": "for Concentration of salmon calcitonin in the blood: nasal 200 MRC (IU)/25 mg, individual cases No. 1-3 in order", "description": "as §2, §1"}, "[8]": {"details": "powder in specific carrier, nasal route"}},
  "note": "Several values for one entry are separate records, joined by “and”; a condition that tells them apart may be missing. Identical values can stand only once.",
  "data": [
    {"substance": "salmon calcitonin", "values": [
      {"measurement": "Concentration of salmon calcitonin in the blood", "setting": "[1]; 0 min (predose)", "value": "~ 7 pg/ml"},
      {"measurement": "Concentration of salmon calcitonin in the blood", "setting": "[1]; 5 min", "value": "19.75 pg/mL and 26.41 pg/mL and 32.23 pg/mL"},
      {"measurement": "Concentration of salmon calcitonin in the blood", "setting": "[1]; 10 min", "value": "19.35 pg/mL and 34.82 pg/mL and 24.85 pg/mL"},
      {"measurement": "Concentration of salmon calcitonin in the blood", "setting": "[1]; 15 min", "value": "14.97 pg/mL and 31.66 pg/mL and 18.68 pg/mL"},
      {"measurement": "Concentration of salmon calcitonin in the blood", "setting": "[1]; 20 min", "value": "~ 7 pg/ml and 37.63 pg/ml and 12.92 pg/ml"},
      {"measurement": "Concentration of salmon calcitonin in the blood", "setting": "[1]; 30 min", "value": "9.15 pg/ml and 24.79 pg/ml and ~ 7 pg/ml"},
      {"measurement": "Concentration of salmon calcitonin in the blood", "setting": "[1]; 45 min", "value": "~ 8 pg/ml and 13.70 pg/ml and ~ 7 pg/ml"},
      {"measurement": "Concentration of salmon calcitonin in the blood", "setting": "[1]; 60 min", "value": "~ 7 pg/ml and 12.12 pg/ml"},
      {"measurement": "absorption", "setting": "[1]; nasal", "value": "high extent of absorption"},
      {"measurement": "concentration in the blood versus injection", "setting": "[1]; nasal", "value": "simlar to that obtainable by injection"},
      {"measurement": "absorption through the nasal cavity", "setting": "[2]", "value": "high extent of absorption"},
      {"measurement": "Concentration of salmon calcitonin in the blood", "setting": "[2]; 0 min (predose)", "value": "~ 7 pg/ml"},
      {"measurement": "Concentration of salmon calcitonin in the blood", "setting": "[2]; 5 min", "value": "65.30 pg/mL and 66.02 pg/mL and 57.83 pg/mL and 72.72 pg/mL"},
      {"measurement": "Concentration of salmon calcitonin in the blood", "setting": "[2]; 10 min", "value": "98.88 pg/mL and 95.22 pg/mL and 83.75 pg/mL and 130.21 pg/mL"},
      {"measurement": "Concentration of salmon calcitonin in the blood", "setting": "[2]; 15 min", "value": "96.96 pg/mL and 106.69 pg/mL and 91.55 pg/mL and 139.54 pg/mL"},
      {"measurement": "Concentration of salmon calcitonin in the blood", "setting": "[2]; 20 min", "value": "59.91 pg/mL and 102.60 pg/mL and 63.17 pg/mL and 122.29 pg/mL"},
      {"measurement": "Concentration of salmon calcitonin in the blood", "setting": "[2]; 30 min", "value": "46.96 pg/mL and 71.13 pg/mL and 48.09 pg/mL and 91.38 pg/mL"},
      {"measurement": "Concentration of salmon calcitonin in the blood", "setting": "[2]; 45 min", "value": "23.89 pg/mL and 57.42 pg/mL and 30.95 pg/mL and 45.91 pg/mL"},
      {"measurement": "Concentration of salmon calcitonin in the blood", "setting": "[2]; 60 min", "value": "14.31 pg/mL and 33.21 pg/mL and 19.56 pg/mL and 15.62 pg/mL"},
      {"measurement": "Concentration of salmon calcitonin in the blood", "setting": "[2]; 90 min", "value": "~ 7 pg/ml (2×) and 13.06 pg/ml and 10.39 pg/ml"},
      {"measurement": "Concentration of salmon calcitonin in the blood", "setting": "[2]; 120 min", "value": "~ 7 pg/ml and 8.76 pg/ml"},
      {"measurement": "Concentration of salmon calcitonin in the blood", "setting": "[2]; 180 min", "value": "~ 7 pg/ml"},
      {"measurement": "time of maximum concentration", "setting": "[2]; nasal", "value": "reaching maximum in a short time after administration"},
      {"measurement": "absorption", "setting": "[3]", "value": "high extent of absorption"},
      {"measurement": "bioavailability and concentration in blood", "setting": "[4]; homogeneously dispersed in and adsorbed onto the carrier", "value": "high both in bioavailability and concentration in blood"},
      {"measurement": "absorption into the body", "setting": "[4]; [8]", "value": "well absorbed into the body"},
      {"measurement": "clinical effects", "setting": "[4]; [8]", "value": "high clinical effects"},
      {"measurement": "absorption", "setting": "[5]", "value": "high extent of absorption"},
      {"measurement": "stability", "setting": "[6]", "value": "relatively low in stability"},
      {"measurement": "Concentration of salmon calcitonin in the blood", "setting": "[7]; 0 min (predose)", "value": "~ 7 pg/ml"},
      {"measurement": "Concentration of salmon calcitonin in the blood", "setting": "[7]; 5 min", "value": "55.50 pg/mL and 14.05 pg/mL and 76.25 pg/mL"},
      {"measurement": "Concentration of salmon calcitonin in the blood", "setting": "[7]; 10 min", "value": "93.05 pg/mL and 44.12 pg/mL and 107.67 pg/mL"},
      {"measurement": "Concentration of salmon calcitonin in the blood", "setting": "[7]; 15 min", "value": "49.84 pg/mL and 77.03 pg/mL and 118.26 pg/mL"},
      {"measurement": "Concentration of salmon calcitonin in the blood", "setting": "[7]; 20 min", "value": "65.95 pg/mL and 59.36 pg/mL and 95.07 pg/mL"},
      {"measurement": "Concentration of salmon calcitonin in the blood", "setting": "[7]; 30 min", "value": "21.08 pg/mL and 47.69 pg/mL and 102.78 pg/mL"},
      {"measurement": "Concentration of salmon calcitonin in the blood", "setting": "[7]; 45 min", "value": "12.54 pg/mL and 24.68 pg/mL and 60.68 pg/mL"},
      {"measurement": "Concentration of salmon calcitonin in the blood", "setting": "[7]; 60 min", "value": "13.50 pg/mL and 19.43 pg/mL and 42.97 pg/mL"},
      {"measurement": "Concentration of salmon calcitonin in the blood", "setting": "[7]; 90 min", "value": "7.92 pg/ml and ~ 7 pg/ml and 21.78 pg/ml"},
      {"measurement": "Concentration of salmon calcitonin in the blood", "setting": "[7]; 120 min", "value": "~ 7 pg/ml and 12.75 pg/ml"},
      {"measurement": "Concentration of salmon calcitonin in the blood", "setting": "[7]; 180 min", "value": "~ 7 pg/ml"},
      {"measurement": "absorption into the blood", "setting": "[7]; nasal", "value": "high degree of absorption"}
    ]}
  ]
}
